Nc1ccc(S(=O)(=O)Nc2ncccn2)cc1
solubility (mole fraction)
Details	278.15 K	283.15 K	288.15 K	293.15 K	298.15 K	303.15 K	308.15 K	313.15 K
in NMP	0.0118	0.0137	0.0153	0.018	0.0194	0.0224	0.132	0.137
in water	1.89e-06	2.51e-06	3.18e-06	3.96e-06	5.13e-06	6.32e-06	8.03e-06	9.98e-06
